From patent US12595230B2, “Substituted 6,7-dihydro-5H-benzo[7]annulene compounds and their derivatives, processes for their preparation and therapeutic uses thereof” (Sanofi, priority 2020, dated 2026)

Biological target: T1, ERα (Homo sapiens, UniProt P03372)
T1 construct: host or cells: MCF7
T1 sequence (P03372 1-595): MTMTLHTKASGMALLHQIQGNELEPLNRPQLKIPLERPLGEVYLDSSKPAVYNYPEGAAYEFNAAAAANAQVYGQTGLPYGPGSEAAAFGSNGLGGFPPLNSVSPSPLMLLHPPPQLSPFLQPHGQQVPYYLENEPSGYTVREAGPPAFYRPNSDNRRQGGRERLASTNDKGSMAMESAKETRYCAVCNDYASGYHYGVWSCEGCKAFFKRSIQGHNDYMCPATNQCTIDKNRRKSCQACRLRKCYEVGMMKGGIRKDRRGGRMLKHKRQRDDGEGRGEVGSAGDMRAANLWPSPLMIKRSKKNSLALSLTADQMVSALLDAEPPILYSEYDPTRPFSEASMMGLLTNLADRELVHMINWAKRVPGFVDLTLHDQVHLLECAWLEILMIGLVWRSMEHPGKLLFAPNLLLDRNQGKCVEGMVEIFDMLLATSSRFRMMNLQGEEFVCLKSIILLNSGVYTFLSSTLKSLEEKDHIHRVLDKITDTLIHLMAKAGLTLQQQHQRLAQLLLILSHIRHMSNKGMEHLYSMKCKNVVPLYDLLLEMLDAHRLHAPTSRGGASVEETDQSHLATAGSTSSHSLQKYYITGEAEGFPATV
Assay: Estrogen receptor degradation activity: breast cancer cell ERα in cell western assay (MCF7 cells)
Type: cell-based
Settings: for % Degradation At 0.3 μM: 4 hours, relative to fulvestrant 0.1 μM positive control; for DC50: 4 hours post compound addition, concentration which degrades 50% of the estrogen receptor, read-out: Degradation IC50
Experimental: Test: Estrogen Receptor Degradation Activity Said test involves measuring the in vitro degradation activity of the compounds of the Table 1a. The measurements of the degradation activities were made using a breast cancer cell ERα in cell western assay as described hereunder. MCF7 cells (ATCC) were seeded in 384 wells microplate (collagen coated) at a concentration of 10000 cells/30 μL per well in red phenol free MEM alpha medium (invitrogen) containing 5% charcoal dextran striped FBS. The following day, 9 points serial 1:5 dilution of each compound was added to the cells in 2.5p L at final concentrations ranging from 0.3-0.0000018 μM (in table 2), or 0.1 μM for fulvestrant (using as positive control). At 4 hours post compound addition the cells were fixed by adding 25 μL of formalin (final concentration 5% formalin containing 0.1% triton) for 10 minutes at room temperature and then washed twice with PBS. Then, 50 μL of LI-COR blocking buffer containing 0.1% Triton was added to plate for 30 minutes at room temperature. LI-COR blocking buffer was removed and cells were incubated overnight at cold room with 50 μL anti-ER rabbit monoclonal antibody (Thermo scientific MA1-39540) diluted at 1:1000 in LI-COR blocking buffer containing 0.1% tween-20. Wells which were treated with blocking buffer but no antibody were used as background control. Wells were washed twice with PBS (0.1% tween-20) and incubated at 37° C. for 60 minutes in LI-COR (0.1% tween-20) containing goat anti-rabbit antibody Alexa 488 (1:1000) and Syto-64 a DNA dye (2 μM final concentration). Cells were then washed 3 times in PBS and scanned in ACUMEN explorer (TTP-Labtech). Integrated intensities in the green fluorescence and red fluorescence were measured to determine the levels of ERα and DNA respectively. The degradation activity with respect to estrogen receptors in this test is given by the concentration which degrades 50% of the estrogen receptor (or IC50) in nM. […] DMSO−fulvestrant)).

SMILES | % Degradation At 0.3 μM [%] | DC50 [nM]
O=C(O)c1ccc2c(c1)SCC(c1ccc(Cl)cc1Cl)=C2c1ccc(CC2CN(CCCF)C2)cc1 [Example 308, 3-(2,4-dichlorophenyl)-4-(4-((1-(3-fluoropropyl)azetidin-3-yl)methyl)phenyl)-2H-thiochromene-7-carboxylic acid] | 94 | 1.4
Cl.O=C(O)c1ccc2c(c1)CCCC(c1ccc(Cl)cc1Cl)=C2c1ccc(C2(C3CN(CCCF)C3)CC2)cc1 [Example 215, 8-(2,4-dichlorophenyl)-9-(4-(1-(1-(3-fluoropropyl)azetidin-3-yl)cyclopropyl)phenyl)-6,7-dihydro-5H-benzo[7]annulene-3-carboxylic acid hydrochloride] | 67 | 0.3
Cc1ccc(C2=C(c3ccc(CC4CN(CCCF)C4)cc3)c3cc(F)c(O)c(F)c3CCC2)c(Cl)c1 [Example 265, 8-(2-chloro-4-methylphenyl)-2,4-difluoro-9-(4-((1-(3-fluoropropyl)azetidin-3-yl)methyl)phenyl)-6,7-dihydro-5H-benzo[7]annulen-3-ol] | 83 | 0.4
COc1c(C(=O)O)ccc2c1CCCC(c1ccc(F)cc1F)=C2c1ccc(CC2CN(CCCF)C2)cc1 [Example 270, 8-(2,4-difluorophenyl)-9-(4-((1-(3-fluoropropyl)azetidin-3-yl)methyl)phenyl)-4-methoxy-6,7-dihydro-5H-benzo[7]annulene-3-carboxylic acid] | 100 | 225
Cc1cccc(C2=C(c3ccc(CC4CN(CCC(F)F)C4)cc3)c3ccc(C(=O)O)cc3CCC2)c1Cl [Example 277, 8-(2-chloro-3-methylphenyl)-9-(4-((1-(3,3-difluoropropyl)azetidin-3-yl)methyl)phenyl)-6,7-dihydro-5H-benzo[7]annulene-3-carboxylic acid] | 82 | 0.3
Cc1cc(C2=C(c3ccc(CC4CN(CCCF)C4)cc3)c3ccc(C(=O)O)cc3CCC2)cn(C)c1=O [Example 209, 8-(1,5-dimethyl-6-oxo-1,6-dihydropyridin-3-yl)-9-(4-((1-(3-fluoropropyl)azetidin-3-yl)methyl)phenyl)-6,7-dihydro-5H-benzo[7]annulene-3-carboxylic acid] | 100 | 88.7
O=C(O)c1ccc2c(c1)CCCC(c1cccc(CC(F)(F)F)c1)=C2c1ccc(CC2CN(CCCF)C2)cc1 [Example 298, 9-(4-((1-(3-fluoropropyl)azetidin-3-yl)methyl)phenyl)-8-(3-(2,2,2-trifluoroethyl)phenyl)-6,7-dihydro-5H-benzo[7]annulene-3-carboxylic acid] | 82 | 0.5
Cc1cc(F)ccc1C1=C(c2ccc(CC3CN(CCCF)C3)cc2)c2ccc(C(=O)O)cc2CCC1 [Example 33, 8-(4-fluoro-2-methylphenyl)-9-(4-((1-(3-fluoropropyl)azetidin-3-yl)methyl)phenyl)-6,7-dihydro-5H-benzo[7]annulene-3-carboxylic acid] | 89 | 0.2
O=C(O)c1ccc2c(c1)CCCC(c1ccc(F)cc1C(F)(F)F)=C2c1ccc(CC2(F)CN(CCCF)C2)cc1 [Example 241, 9-(4-((3-fluoro-1-(3-fluoropropyl)azetidin-3-yl)methyl)phenyl)-8-(4-fluoro-2-(trifluoromethyl)phenyl)-6,7-dihydro-5H-benzo[7]annulene-3-carboxylic acid] | 92 | 3.7
CCC1CCc2cc(C(=O)O)ccc2C(c2ccc(CC3CN(CCCF)C3)cc2)=C1c1ccc(Cl)cc1 (single isomer, unassigned) [Example 329, 8-(4-chlorophenyl)-7-ethyl-9-(4-((1-(3-fluoropropyl)azetidin-3-yl)methyl)phenyl)-6,7-dihydro-5H-benzo[7]annulene-3-carboxylic acid] | 89 | 1.3
COc1ccc(C2=C(c3ccc(CC4CN(CCCF)C4)cc3)c3ccc(C(=O)O)cc3CCC2)c(Cl)c1 [Example 24, 8-(2-chloro-4-methoxyphenyl)-9-(4-((1-(3-fluoropropyl)azetidin-3-yl)methyl)phenyl)-6,7-dihydro-5H-benzo[7]annulene-3-carboxylic acid] | 92 | 0.4
Cl.[2H]C([2H])(CCF)N1CC(Cc2ccc(C3=C(c4ccc(Cl)cc4Cl)CCCc4cc(C(=O)O)ccc43)cc2)C1 [Example 208, 8-(2,4-dichlorophenyl)-9-(4-((1-(3-fluoropropyl-1,1-d2)azetidin-3-yl)methyl)phenyl)-6,7-dihydro-5H-benzo[7]annulene-3-carboxylic acid hydrochloride] | 95 | 0.2

The next lines start with the values.

% Degradation At 0.3 μM [%] | DC50 [nM] | SMILES
90 | 0.4 | CC1CCc2cc(C(=O)O)ccc2C(c2ccc(CC3CN(CCCF)C3)cc2)=C1c1ccc(Cl)cc1Cl (single isomer, unassigned) [Example 303, 8-(2,4-dichlorophenyl)-9-(4-((1-(3-fluoropropyl)azetidin-3-yl)methyl)phenyl)-7-methyl-6,7-dihydro-5H-benzo[7]annulene-3-carboxylic acid]
91 | 0.2 | O=C(O)c1ccc2c(c1)CCCC(c1ccc(Cl)cc1C(F)F)=C2c1ccc(CC2CN(CCCF)C2)cc1 [Example 221, 8-(4-chloro-2-(difluoromethyl)phenyl)-9-(4-((1-(3-fluoropropyl)azetidin-3-yl)methyl)phenyl)-6,7-dihydro-5H-benzo[7]annulene-3-carboxylic acid]
94 | 0.5 | O=C(O)c1ccc2c(c1)CCCC(c1ccc(Cl)cc1C(F)(F)F)=C2c1ccc(CC2CN(CCCF)C2)cc1 [Example 27, 8-(4-chloro-2-(trifluoromethyl)phenyl)-9-(4-((1-(3-fluoropropyl)azetidin-3-yl)methyl)phenyl)-6,7-dihydro-5H-benzo[7]annulene-3-carboxylic acid]
82 | 6.6 | O=C(O)c1c(F)cc2c(c1F)CCCC(c1ccc(Cl)cc1Cl)=C2c1ccc(CC2CN(CCCF)C2)cc1 [Example 225, 8-(2,4-dichlorophenyl)-2,4-difluoro-9-(4-((1-(3-fluoropropyl)azetidin-3-yl)methyl)phenyl)-6,7-dihydro-5H-benzo[7]annulene-3-carboxylic acid]
88 | 0.3 | O=C(O)c1ccc2c(c1)CCCC(c1cccc(C(F)(F)F)c1Cl)=C2c1ccc(CC2CN(CCC(F)F)C2)cc1 [Example 286, 8-(2-chloro-3-(trifluoromethyl)phenyl)-9-(4-((1-(3,3-difluoropropyl)azetidin-3-yl)methyl)phenyl)-6,7-dihydro-5H-benzo[7]annulene-3-carboxylic acid]
93 | 0.4 | O=C(O)c1ccc2c(c1)CCCC(c1ccc(Cl)cc1Cl)=C2c1ccc(CC2CN(CCCF)C2)c(F)c1 [Example 239, 8-(2,4-dichlorophenyl)-9-(3-fluoro-4-((1-(3-fluoropropyl)azetidin-3-yl)methyl)phenyl)-6,7-dihydro-5H-benzo[7]annulene-3-carboxylic acid]
